Reference: US20020168327A1, “Treatment of dandruff” (Unilever Home & Personal Care USA, Division of Conopco, Inc., priority 2001, published 2002)
Values joined by “and” are separate entries in the source; they are usually repeats but may differ in a detail not shown here. Equal values may be shown once.

What was measured:
[1] = In vitro skin penetration study, Franz diffusion cells, radiolabelled shampoo; type: in vitro ADME, human; settings: 6-fold diluted shampoo, one minute contact then washed off; 3H label; p<0.05
Experimental: Radiolabelled formulations were prepared using formulations spiked with either ^3H Lysine or ^3H glyceryl trioleate in sunflower seed oil. The total balance of each nutrient was brought up to 0.01% by weight using non-labelled cold material. Excised human full thickness skin was obtained and placed in between the two compartments of Franz diffusion cells. The skin is maintained by filling the receptor chamber of the cell with phosphate buffered saline with the cells placed in a water bath at 37° C. to maintain a surface skin tissue of about 32° C. […] The experimental procedure was as follows:
6-fold diluted shampoo was applied to the skin, left for one minute and washed off. The skin was then separated into 3:
remainder of the epidermis (viable) is then removed using heat separation (identified as the epidermal section)
Each of these layers was analysed for radioactivity and the amount of material penetrated calculated.
Using the in-vitro skin penetration studies, the amount of penetrated material can be quantified as a snap shot in time. From the skin sectioning process, the location of the penetrant at the particular point in time can be measured.

[2] = tested on: ceramide levels in stratum corneum; assay: Ceramide production in skin: test products applied to the volar forearm for four weeks, stratum corneum tape stripping; type: in vivo, human; settings: responder subset of subjects; 1.0% of each active in ethanol/propylene glycol; twice daily for four weeks on volar forearm
Experimental: Tests on the ability of compositions to increase ceramide production in skin were carried out. The formulation pairs tested were: 1.0% tetraacetyl phytosphingosine (TAPS) vs Vehicle 1.0% TAPS+1.0% juniperic acid+1.0% linoleic acid vs Vehicle. Vehicle=ethanol/propylene glycol (1:1) plus 0.2% by weight Glydant Plus™. […] The studies were conducted as double-blind paired comparisons, with treatment assignments randomized. Subjects first completed a four-day washout phase. During the four-week application phase, test products were applied twice daily to the volar surface of the forearms, using dropper bottles to deliver 0.1 ml of test product to each site; each subject applied a test formulation to one site and the vehicle formulation to the adjacent site. After four weeks of application, samples of stratum corneum were obtained by tape stripping. A subset of subjects who responded to the treatments as expected, with a significant increase in ceramide levels, data from subjects showing increased ceramides was broken out. In each case, responder subjects represented a cross-section of the whole panel; they were not predominantly of one sex or age group. […] Increases were seen across all ceramide types. The increases for ceramides 1 and 2 were dramatically higher than for the other ceramide types.

Compound	skin penetration (skin layers reached) [1]	mean increase in ceramide levels compared with vehicle [2]
NCCCC[C@H](N)C(=O)O [lysine]	penetrate not only into the stratum corneum but also deeper into the epidermis and dermis	–
tetraacetyl phytosphingosine [TAPS]	–	30% and 25%
